We go through 1 compound from patent US11696914B1 (priority 2019, dated 2023).

Like-named read-outs stand apart in the source and are kept apart here.

The subject of one data set is Hartley guinea pigs. The note with it: both, guinea pig, in vivo.
A short description of the next data set: in vitro. The note with it: dog.
In a further data set the test system is Hepatitis B virus. Kind of data set: microbe, parasite or virus in culture. The class given is cell-based. The note with it: HepG2 2.2.15.
The test system of the next data set is Tacaribe virus. Kind of data set: microbe, parasite or virus in culture. Format: cell-based. The settings on record: Mammarenavirus tacaribeense, Vero.
For another data set, the system named is Yellow Fever virus. Kind of data set: microbe, parasite or virus in culture. The class given is cell-based. The note with it: Vero 76.
A further data set has as its system MERS coronavirus. Put plainly: microbe, parasite or virus in culture. Format: cell-based. The settings on record: Middle East respiratory syndrome-related coronavirus, Vero 76.
For a further data set, the system named is Influenza A virus H1N1. Put plainly: microbe, parasite or virus in culture. The class given is cell-based. The settings on record: H1N1, MDCK.
The test system of the next data set is Vaccinia Virus. Kind of data set: microbe, parasite or virus in culture. The class given is cell-based. The note with it: Orthopoxvirus vaccinia.
Data set [1] has as its system Marburg virus/H.sapiens-tc/KEN/1980/Mt. Elgon-Musoke (MARV/Mus). Put plainly: organism not typed. Format: cell-based. The note with it: HeLa.

One may read the EC50 as the concentration at which the effect is half-maximal. The term EC90 denotes the point of the concentration-response curve where the effect stands at 90%. Read a high EC90 as a need for much substance. As a reminder, the IC50 is the point on the concentration scale where inhibition reaches its midpoint. A high value points to lower potency. As to `COc1ccc2nc3cc(Cl)ccc3c(Nc3cc(CN4CCCC4)c(O)c(CN4CCCC4)c3)c2n1` [Pyronaridine, 4-[(7-Chloro-2-methoxybenzo[b][1,5]naph-thyridin-10-yl)amino]-2,6-bis(1-pyrrolidinylmethyl)phenol phosphate (1:4)], the “guinea pigs found dead on days 5 and 6” value in the data set on Hartley guinea pigs is recorded as 2 of 6. In addition, the “guinea pigs found dead within 30 mins post injection” value in the data set with Hartley guinea pigs is listed as 4 of 6. Also, the “guinea pigs having any abnormal clinical observations” value in the data set on Hartley guinea pigs was 1 of 6. Moreover, the “maximum tolerated dose (MTD), single dose” value in the data set on Hartley guinea pigs (ip) is 125 mg/kg; with Hartley guinea pigs (po) it was over 600 mg/kg. In “in vitro”, this compound registered a CC50 of 3.2 µM. Also, the EC50 was 4.52 µM with Hepatitis B virus; over 3.2 µM in the data set with Tacaribe virus; 3.2 µM in the data set with Yellow Fever virus; 3.2 µM in the data set on MERS coronavirus; 3.2 µM in the data set on Influenza A virus H1N1; over 1.2 µM with Vaccinia Virus. For the same compound, the figures for the EC90 in the data set with Hepatitis B virus and in the data set with Vaccinia Virus were over 100 µM and over 1.2 µM, respectively. The same compound gave an IC50 in data set [1] of 1.01 ± 0.11 µM.
